Where two headings read alike, the source gives them in different places.
What was measured:
[1] = system: SNB-19 glioblastoma cell line; test: MTT cytotoxicity assay, SNB-19 glioblastoma cells; type: cell-based, human; settings: three independent experiments, read-out: Growth Inhibition of Cells (GI50 ± SEM) SNB-19
[2] = system: HeLa (HPV18-positive human cervical cancer cell line); test: MTT cytotoxicity assay, HeLa cervical cancer cells; type: cell-based; settings: 48 h incubation, three independent experiments, read-out: Growth Inhibition of Cells (GI50 ± SEM) HeLa (HPV-18)
[3] = system: DU-145 prostate cancer cell line; test: MTT cytotoxicity assay, DU-145 prostate cancer cells; type: cell-based, human; settings: three independent experiments, read-out: Growth Inhibition of Cells (GI50 ± SEM) DU-145
[4] = system: C33 A (HPV-negative human cervical cancer cell line); test: MTT cytotoxicity assay, C33 A cervical cancer cells; type: cell-based; settings: read-out: Growth Inhibition of Cells (GI50 ± SEM) C33 A (HPV-Negative)
[5] = system: Normal epithelial VERO cells; test: MTT cytotoxicity assay, normal epithelial VERO cells (non-cancer control); type: cell-based, African green monkey; settings: 48 h incubation, three independent experiments, read-out: Growth Inhibition of Cells (GI50 ± SEM) VERO
[6] = system: T98G glioblastoma cell line; test: MTT cytotoxicity assay, T98G glioblastoma cells; type: cell-based, human; settings: 48 h incubation, three independent experiments, read-out: Growth Inhibition of Cells (GI50 ± SEM) T98G
[7] = system: CaSki (HPV16-positive human cervical cancer cell line); test: MTT cytotoxicity assay, CaSki cervical cancer cells; type: cell-based; settings: 48 h incubation, three independent experiments, read-out: Growth Inhibition of Cells (GI50 ± SEM) CaSki (HPV-16)
[8] = system: MCF-7 breast adenocarcinoma cells; test: MTT cytotoxicity assay, MCF-7 breast adenocarcinoma cells; type: cell-based, human; settings: three independent experiments, read-out: Growth Inhibition of Cells (GI50 ± SEM) MCF-7
[9] = parameters: method as in PMID 21725818; settings: mice; cited from earlier work
[10] = parameters: method as in PMID 21725818; settings: rats; cited from earlier work
activated macrophages = system: activated macrophages; parameters: method as in PMID 9810263; settings: in vivo; cited from earlier work
[11] = Homo sapiens, SNB-19, 48 h incubation
[12] = Homo sapiens, DU-145, 48 h incubation
[13] = Chlorocebus sabaeus, Vero, 48 h
[14] = Homo sapiens, MCF7, 48 h, 48 h incubation
[15] = Homo sapiens, C-33-A, MTT, 48 h incubation, three independent experiments

Molecule	GI50 [5] [µM]	GI50 ([8]; 48 h incubation) [µM]	GI50 [1, 11] [µM]	GI50 ([2]; Homo sapiens, HeLa) [µM]	GI50 [3, 12] [µM]	GI50 [5, 13] [µM]	GI50 ([6]; Homo sapiens, T98G) [µM]	GI50 ([7]; Homo sapiens, Ca-Ski) [µM]	GI50 [8, 14] [µM]	also measured
1-O-Galloyl-β-D-glucopyranose [Compound 6]	> 100	31 ± 0.7								GI50 ([1]; 48 h incubation): 26 ± 1.2 µM; GI50 [2]: 29 ± 2.4 µM; GI50 ([3]; 48 h incubation): 67 ± 6.4 µM; GI50 ([4]; MTT, 48 h incubation, three independent experiments): 27 ± 2.6 µM; GI50 [6]: 21 ± 0.8 µM; GI50 [7]: 18 ± 1.4 µM
C[C@H](CCc1ccc(O)cc1)O[C@@H]1O[C@H](CO)[C@@H](O)[C@H](O)[C@H]1O [Compound 1, (R)-4-(4-Hydroxyphenyl)-2-butanol 2-β-D-glucopyranoside]	> 100		23 ± 4.1	16 ± 0.8	21 ± 2.3	> 83	29 ± 2.5	12 ± 0.7	10 ± 1.8	analgesic actions [9]: significant analgesic actions; anti-inflammatory actions [10]: anti-inflammatory actions; GI50 ([4]; Homo sapiens, C-33-A, 48 h): 27 ± 1.4 µM
C[C@@H](CCc1ccc(O)cc1)O[C@@H]1O[C@H](CO)[C@@H](O)[C@H](O)[C@H]1O [Compound 3, (S)-4-(4-Hydroxyphenyl)-2-butanol 2-β-D-glucopyranoside]										NO production by activated macrophages (activated macrophages): suppressed NO production
C[C@@H](O)CCc1ccc(O)cc1 [Compound 4, (R)-4-(4-Hydroxyphenyl)-2-butanol]	> 100		15 ± 0.9	29 ± 0.7	21 ± 0.8	> 83	18 ± 1.1	10 ± 0.6	11 ± 1.4	GI50 [4, 15]: 28 ± 0.5 µM
C[C@H](O)CCc1ccc(O)cc1 [Compound 5, (S)-4-(4-Hydroxyphenyl)-2-butanol]										NO production by activated macrophages (activated macrophages): suppressed NO production
CC(=O)CCc1ccc(O)cc1 [Compound 9, 4-(4-Hydroxyphenyl)butan-2-one]	> 100		33 ± 1.8	23 ± 3.7	60 ± 1.7	> 83	19 ± 0.9	20 ± 1.5	21 ± 2.1	GI50 [4, 15]: 19 ± 2.2 µM
COc1ccc(C=Cc2cc(O)cc(OC3OC(CO)C(O)C(O)C3O)c2)cc1 [Compound 11, 3,5-Dihydroxy-4′-methoxystilbene-3-O-β-D-glucopyranoside]	92 ± 7.9	8 ± 1.8	13 ± 1.1	17 ± 0.9		> 83	18 ± 3.5		7 to 8	
OC[C@H]1O[C@@H](Oc2ccc(/C=C/c3cc(O)cc(O)c3)cc2)[C@H](O)[C@@H](O)[C@@H]1O [Compound 12, (E)-resveratrol 4′-O-β-D-glucopyranoside]	98 ± 4.8	7 ± 1.2	9.2 ± 0.8	18 ± 1.6		> 83	21 ± 1.7		7 to 8	
COc1cccc2c1C(=O)c1c(O)c3c(c(O)c1C2=O)C[C@@](O)(C(=O)CO)C[C@@H]3O[C@H]1C[C@H](N)[C@H](O)[C@H](C)O1 [Doxorubicin, reference compound]			7.6 ± 0.7	6.1 ± 0.7	15 ± 0.3		13 ± 0.5	10.1 ± 0.7		GI50 ([5]; Chlorocebus sabaeus, Vero): 8 ± 1.8 µM; GI50 ([8]; Homo sapiens, MCF7, 48 h incubation): 5.2 ± 0.8 µM
